Assay results taken from a melting point compilation (Tetko et al.; mined from patent text by program, amines drawn as free bases though some values may be those of a salt).

melting point | Compound
81.7 to 84 °C | O=c1oc2c(c(O)c1C(c1ccccc1)C1CC1)CCCCCCC2 (stereo not drawn)
> 250 °C | O=C(O)Cn1c(=O)c(=O)[nH]c2cc([N+](=O)[O-])c(-n3ccc(CN4CCCCC4)c3)cc21
190 to 191 °C | CCOC(=O)c1cn(C(C)CCl)c2c(F)c(F)c(F)cc2c1=O (stereo not drawn)
267 to 268 °C | c1ccc2c(=Nc3ccncc3)cc3oc4cc(N5CCCCC5)ccc4nc-3c2c1
184 to 191 °C | O=c1c2ccccc2[nH]c2ccc(O)c(Cl)c12
161 to 162 °C | CCCNC(=O)CCCCCn1c(COCC)nc2c(N)nc3ccccc3c21
166 to 168 °C | COC(=O)N1c2cc(F)ccc2NC(=O)C1(C)C
53 to 55 °C | COC(c1ccccc1)C(C)([N+](=O)[O-])[N+](=O)[O-] (stereo not drawn)
142 to 144 °C | COC(=O)c1c(C(F)F)nc(C(F)(F)F)c(C2CC(C)N(O)C2)c1CC1CC1 (stereo not drawn)
149 to 150 °C | COC(=O)C1C(=O)N(Cc2ccc(Br)cc2F)C(=O)c2ccccc21 (stereo not drawn)
122 °C | CN(C)Cc1cccc(Oc2ccc3c(c2)S(=O)(=O)NC2CCCN32)c1 (stereo not drawn)
155 to 156 °C | COC(=O)C1=C(C)NC(=S)N(C(=O)Cc2ccccc2)C1c1cccc([N+](=O)[O-])c1 (stereo not drawn)
188 to 192 °C | CN(C)c1ccc(C2(c3ccc(N(C)C)cc3N(C)C)OC(=O)c3ccc(N(C)C)cc32)c(N(C)C)c1
212 to 213 °C | CCN(CC)CCN=C1CC(c2ccc(Cl)c(Cl)c2)Cc2c1c(=O)c1cc(Cl)ccc1n2O (stereo not drawn)
158 to 160 °C | CCCN1C(=O)C2(COc3cc4c(cc32)OCO4)c2ccccc21 (stereo not drawn)
119 to 121 °C | CCCOc1ccnc2c1c(C(C)=O)cn2S(=O)(=O)c1ccccc1
140 to 141 °C | O=c1c2ccccc2sn1-c1ccccc1
239 to 240 °C | CCOc1c(OC)cc(C(=O)NN=C2CCCC2=Cc2ccccc2)cc1OC
63 to 70 °C | CCCCCCCCCCCCCCCCCC(=O)OC1CC(C)(C)N(OC(C)=O)C(C)(C)C1
115 to 117 °C | CN1C(=S)N(c2ccc(Cl)c(Cl)c2)C(O)C1O (stereo not drawn)
123 to 124 °C | CCC(=O)c1ccc(Oc2ccc(-c3scc(-c4ccccc4Cl)c3CC(=O)N=C(N)N)cc2)cc1
> 260 °C | COc1cc(OC)c(-c2ccc(C(=O)O)s2)cc1/C=C/C(=O)c1ccc(C(=O)O)cc1
76.5 to 77 °C | C(#Cc1cnc2ccccc2c1)CCN1CCN(c2ccccn2)CC1
139 to 141 °C | O=[N+]([O-])c1cn(-c2cccnc2)nc1Br

melting point | Compound
119 to 121 °C | CCCOC1CCCC(C2NC(=O)C2C(C)O[Si](C)(C)C(C)(C)C)C1O (stereo not drawn)
122 to 123 °C | COC(CNc1nc(-c2ccccc2)c2cc(Cl)ccc2n1)OC
> 300 °C | Cc1nc2c(C)cc(Oc3cnc(N)nc3N)c(C(C)C)c2o1
145 to 146 °C | Cc1cc(-n2ccc(CCc3ccccc3)cc2=O)sc1C(=O)NCc1ccccc1
233 to 235 °C | CN1CCN(CC2CCN(c3ccc(Nc4ncc5ccc(-c6cccc(S(=O)(=O)NC(C)(C)C)c6)n5n4)cc3)CC2)CC1
83 to 84 °C | O=Cc1ccc(C(=O)NCC(F)(F)F)cc1
120 to 121 °C | CCOC(=O)c1cccc(-c2ccc3cc[nH]c3c2)c1
127 to 129 °C | CCCCc1nc2cccnc2n1Cc1ccc2c(Cl)c(C(=O)OC)sc2c1
144 to 145 °C | COc1cc2c(cc1OCc1ccccc1)CCN(Cc1cc(OC)c(OC)c(OC)c1)C2
82 to 84 °C | N=C(Nc1cccc(NC(=O)/C=C/c2ccccc2C(F)(F)F)c1)c1ccccc1
125 to 127 °C | CN1CC(CCN2CCN(c3ccc(Br)cc3)CC2)OC1=O (stereo not drawn)
111 to 113 °C | Cc1c(C(=O)N[C@@H](Cc2ccc(OCc3ccsc3)cc2)C(=O)O)oc2cc(-c3ccc(Cl)cc3)ccc12
245 to 246 °C | Cc1cccc(-c2[nH]c(C(C)C)nc2-c2ccc(F)c(-c3ccc(S(N)(=O)=O)cc3)c2)n1
220 to 222 °C | Cn1ncnc1COc1nn2cnnc2cc1-c1ccsc1
114 to 116 °C | CC(CCOc1ccccc1NS(C)(=O)=O)N1CCC(OC(c2ccccc2)c2ccccc2)CC1 (stereo not drawn)
196 °C | CN(C(=O)OC(C)(C)C)c1cccc(-c2nc(=O)c3ccccc3s2)n1
92 to 94 °C | Nc1cncc(C(O)c2ccccc2)c1 (stereo not drawn)
222 °C | Cn1cncc1C(O)(c1ccc(Cl)cc1)c1ccc2c(c1)c(-c1cccc(Cl)c1)cc1cnnn12 (stereo not drawn)
150 to 151 °C | N#CCCNC(=O)c1cccc(-c2cccc(Oc3ccc4[nH]ccc4c3)n2)c1
> 250 °C | CCOC(=O)c1c[nH]c2c(-c3ccncc3)c(-c3ccc(F)cc3)nn2c1=O
79.1 °C | CSc1cc(-c2ccccc2)nc(-c2cccc(C(F)(F)F)c2)c1
182 °C | COc1ccc(Cl)cc1C(=O)NCCc1ccc(CC2SC(=O)NC2=O)cc1 (stereo not drawn)
115 °C | O=C1NCCNC1c1ccc(F)cc1 (racemic)
128 to 129 °C | CN1CCN(c2cccc3ccc(Nc4ncccc4[N+](=O)[O-])cc23)CC1

melting point | Compound
146 to 148 °C | CCC1Cc2cc(OCCCC(=O)O)c(Cl)c(Cl)c2C1=O (stereo not drawn)
218 to 221 °C | COC(=O)C1(S(C)(=O)=O)C(C)NC(C)=CC1c1ccccc1S(=O)(=O)NN(C)C (stereo not drawn)
300 to 301 °C | Cc1ccc2nc3n(c(=O)c2c1)-c1ccc(F)cc1C3=O
125 to 126 °C | CCc1noc(-c2ncn(-c3cccc(Cl)c3)c2COC)n1
64 to 65 °C | CC1=C(C(=O)c2ccc(C(C)(C)C)cc2)C(=O)C2C=CC=CC2C1=O (stereo not drawn)
129 to 130 °C | O=C1C(c2ccccc2)=C(c2ccccc2)C(=O)N1CCc1cccc(F)c1
198 °C | CC1(C)C(=O)Oc2ccc3cc(C#N)c(Cn4cncn4)cc3c21
104 to 109 °C | CSc1nc(N)nn1C
97 °C | O=[N+]([O-])c1cccnc1Nc1ccccc1F
212 to 214 °C | COc1ccc(-c2nc(SC(F)(F)C(F)F)[nH]c2-c2ccncc2)cc1
109 to 110 °C | O=C(C(Br)c1ccc(Cl)cc1)C1(c2ccc(Cl)c(Cl)c2)CCC1 (stereo not drawn)
120 to 122 °C | CC(C)OC(=O)C1=C(c2ccccc2)C(c2ccccc2)OC1=O (stereo not drawn)
121 to 122 °C | CCCCCCCCCC(=O)Nc1ccc(S(=O)(=O)Nc2nnc(CC)s2)cc1
226 to 228 °C | CCOC(=O)C(C)(C)Sc1ccc(NCCn2c(C)nc3ccccc3c2=O)cc1
202 to 205 °C | CC(C)Cn1cnc2c(NN)nc3ccccc3c21
203 to 206 °C | O=C(N[C@@H](Cc1c[nH]cn1)C(=O)OCCc1cccs1)C(Cc1cccc2ccccc12)Cc1cccc2ccccc12
151 to 152 °C | COc1cc(COc2nn(Cc3ccccc3)cc2C=O)ccc1OCc1nc(-c2ccccc2)oc1C
55 to 56 °C | COc1ccc(CSC(C)(C)C2(c3ccc(F)cc3F)CO2)cc1 (stereo not drawn)
176 to 177 °C | COc1cc2c(cc1OC)C(C=NO)c1ccccc1CC2 (stereo not drawn)
158 to 161 °C | Cn1cccc1CCN1C(=O)NCc2c(-c3ccccc3)cccc21
229 to 231 °C | O=C1CCC(N2C(=O)c3cccc(OCc4ccc(CN5CCN(S(=O)(=O)C(F)(F)F)CC5)cc4)c3C2=O)C(=O)N1 (stereo not drawn)
95 to 96 °C | Cc1ccc2c(OS(=O)(=O)C(F)(F)F)cc(=O)oc2c1
221 °C | CCc1nc2cc(C(F)(F)F)c(Cl)cc2n1-c1ccc(CCOC(=O)NS(=O)(=O)c2cn(C)c(C)n2)cc1
165 to 168 °C | O=S(=O)(c1[nH]c(-c2ccc(Cl)cc2)c(Br)c1Br)C(F)(F)F

melting point | Compound
148 to 150 °C | O=C(NCCO)c1cccc(-c2cccn3c(=O)n(Cc4cccc(C(F)(F)F)c4)nc23)c1
> 300 °C | C#Cc1cc2nc(O)c(O)nc2cc1[N+](=O)[O-]
186 °C | CSc1ccc(-c2n[nH]c(=O)cc2-c2ccccc2)cc1
68 to 71 °C | COc1ccc(S(=O)(=O)N2CSC(C)(C)[C@@H]2C(=O)NO)cc1
96 to 100 °C | COc1ccc(C(O)Cc2ccncc2)c2c1OCC2C (stereo not drawn)
155 to 158 °C | Cc1nc(N2CCN(CC(C)C)C2=O)sc1C(=O)NCc1cnn(C)c1
138 to 145 °C | CCOc1ccc(-n2nc(Sc3ccc(Cl)cc3)c(C)c(C#N)c2=O)cc1
128 to 131 °C | CNCc1cc2cc(Nc3nc(N)n(C(=O)c4cccc(C)c4)n3)ccc2o1
137 to 141 °C | CC(C)(C)c1cc(C(C)(C)C)c(=O)c2nc3ccccc3sc1-2
92 °C | O=C(C=Cc1ccc(Cl)cc1)C1(Cl)CC1
275 to 276 °C | Cc1cc(O)nc2cc(Br)ccc12
167 to 168 °C | CCOC(=O)c1ccc(-c2ncc(-c3ccc(Cl)cc3)s2)cc1
82.5 to 84 °C | CC(C)(C)SC1CC(=O)N1CC(=O)OCc1ccc([N+](=O)[O-])cc1 (stereo not drawn)
233 to 236 °C | CCNC1(C(N)=O)C=C2C(=Nc3ccccc32)C=N1 (stereo not drawn)
164 to 166 °C | CCOCC1OC(n2cnc3c(NCc4cccc(I)c4)ncnc32)C(O)C1O (stereo not drawn)
267 to 270 °C | O=c1[nH]c(SCc2ccccc2)nc2c1NCN2C(c1ccccc1)(c1ccccc1)c1ccccc1
193 to 195 °C | C(=C\c1cc(/C=C/c2ccc3cc[nH]c3c2)n[nH]1)/c1cccc(OCc2ccccn2)c1
162 to 164 °C | CC1C(=O)N(c2ccccc2O)Sc2ccccc21 (stereo not drawn)
85.8 to 86.6 °C | COC(=O)C(C(=O)C(C)C)=C(N)c1ccc(F)cc1
120 to 123 °C | CN1CCN(Cc2ccc(-c3cccc(-c4cncc(C#N)c4Nc4ccc5[nH]ccc5c4)c3)s2)CC1
191 to 193 °C | CC(=O)Sc1c(C)nn2c3ccccc3n(C(C)=O)c12

Compound | melting point
CCOC1=CC2=CCC3C(CCC4(CC)C(=O)CC(OC(C)=O)C34)C2CC1 (stereo not drawn) | 189 °C
CC12C=CC(=O)C=C1CCC1C2CCC2(C)C(=O)CCC12 (stereo not drawn) | 138 to 139 °C
c1cc(-c2ccc(N3CCNCC3)cc2)[nH]n1 | 290 °C
NC(=O)c1ccc2[nH]cc(C3=CCNCC3)c2c1 | 225 to 230 °C
O=C(O)C(=O)c1cn(Cc2ccccc2)c2ccc(-c3ccc(OC(F)(F)F)cc3)cc12 | 169 to 171 °C
